Where a name gives a salt, the structure may show the parent alone.

The target in the first test is T1, cPLA2 crudely purified from the cytoplasm fraction of U937 (Homo sapiens, UniProt P47712).
T1 construct: cPLA2 crudely purified from the cytoplasm fraction of U937; endogenous in cells; host or cells: U937 cells (cytoplasm fraction, crude purification)
T1 sequence (P47712 1-749): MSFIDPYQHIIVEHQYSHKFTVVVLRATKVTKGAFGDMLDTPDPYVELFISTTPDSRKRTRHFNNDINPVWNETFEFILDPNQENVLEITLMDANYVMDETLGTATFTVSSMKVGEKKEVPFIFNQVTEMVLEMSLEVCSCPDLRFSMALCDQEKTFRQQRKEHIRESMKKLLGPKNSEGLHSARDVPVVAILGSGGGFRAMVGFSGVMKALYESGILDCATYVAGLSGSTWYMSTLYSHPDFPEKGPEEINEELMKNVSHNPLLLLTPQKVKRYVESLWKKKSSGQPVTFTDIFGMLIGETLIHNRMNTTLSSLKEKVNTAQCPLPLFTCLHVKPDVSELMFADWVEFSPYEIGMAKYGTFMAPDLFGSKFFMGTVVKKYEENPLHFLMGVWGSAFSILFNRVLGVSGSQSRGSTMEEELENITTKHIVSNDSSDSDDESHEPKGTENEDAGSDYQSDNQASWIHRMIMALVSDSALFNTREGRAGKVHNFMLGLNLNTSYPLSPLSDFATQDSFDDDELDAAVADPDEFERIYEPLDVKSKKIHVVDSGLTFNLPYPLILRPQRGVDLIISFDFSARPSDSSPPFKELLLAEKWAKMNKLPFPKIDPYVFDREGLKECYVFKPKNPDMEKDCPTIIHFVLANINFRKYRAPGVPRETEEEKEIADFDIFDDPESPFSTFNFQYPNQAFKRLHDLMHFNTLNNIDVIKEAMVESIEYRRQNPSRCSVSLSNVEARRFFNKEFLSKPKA
Briefly: Measurement of cPLA2 inhibitory activity (release of [14C]-arachidonic acid from phosphatidyl choline liposome). The test is classed as biochemical.
Conditions: not given
In short, it runs like this:
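The read-out is radioactivity from extracted [14C]-arachidonic acid, freed over 60 min at 37° C from liposomes of 14C-arachidonyl phosphatidylcholine (10 μM PC in the added solution). Buffer was 50 mM HEPES pH 7.5 with Ca2+, DTT, NaCl and BSA. IC50 was derived from inhibition relative to enzyme control minus no-enzyme control.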
`O=C(O)/C=C/c1ccc2c(c1)c(C(=O)Cc1ccc(Cl)cc1)cn2-c1ccccc1` [Example 56, (2E)-3-{3-[(4-chlorophenyl)acetyl]-1-phenyl-1H-indol-5-yl}-2-propenoic acid] had an IC50 of 6400 nM.

The same test, now with this note: cPLA2 from U937 cytoplasm fraction, [14C]arachidonyl-phosphatidyl choline liposome, 37° C., 60 minutes; read-out: cPLA2 inhibitory activity, 50% inhibiting concentration IC50.
As to `O=C(O)CCc1ccc2c(c1)c(CCc1ccccc1)cn2-c1ccccc1O` [Example 147, 3-[1-(2-hydroxyphenyl)-3-(2-phenylethyl)-1H-indol-5-yl]propanoic acid], the IC50 is 779 nM.

With `Cc1c(CCc2ccccc2)c2cc(CCC(=O)O)ccc2n1-c1ccccc1` [Example 48, 3-[2-methyl-1-phenyl-3-(2-phenylethyl)-1H-indol-5-yl]propanoic acid], the IC50 was found to be 126 nM.

Turning to `O=C(O)CCc1ccc2c(c1)c(CCc1ccccc1)cn2-c1ccccc1` [Example 17, 3-[1-phenyl-3-(2-phenylethyl)-1H-indol-5-yl]propanoic acid 2-amino-2-(hydroxymethyl)propane-1,3-diol salt (1:1)], the IC50 was found to be 38 nM. Regarding `O=C(O)CCc1ccc2c(c1)c(CCc1ccccc1)cn2-c1cccnc1` [Example 128, 3-[3-(2-phenylethyl)-1-(3-pyridinyl)-1H-indol-5-yl]propanoic acid hydrochloride], the IC50 is 250 nM.

For the compound `O=C(O)CCc1ccc2c(c1)c(CCc1ccccc1)cn2-c1cccc(O)c1` [Example 157, 3-[1-(3-hydroxyphenyl)-3-(2-phenylethyl)-1H-indol-5-yl]propanoic acid], the IC50 turned out to be 186 nM.

In the case of `O=C(O)CCc1ccc2c(c1)c(CCc1ccccn1)cn2-c1cccc(OCc2ccccc2)c1` [Example 281, 3-{1-[3-(benzyloxy)phenyl]-3-(2-pyridin-2-ylethyl)-1H-indol-5-yl}propanoic acid hydrochloride], the IC50 stood at 278 nM. In the case of `Nc1ccc(-n2cc(CCc3ccccc3)c3cc(CCC(=O)O)ccc32)cc1` [Example 196, 3-[1-(4-aminophenyl)-3-(2-phenylethyl)-1H-indol-5-yl]propanoic acid], the IC50 came out at 66 nM. For `O=C(O)CCc1ccc2c(c1)c(CCc1ccccc1)cn2-c1ccc(C(F)(F)F)cc1` [Example 207, 3-{3-(2-phenylethyl)-1-[4-(trifluoromethyl)phenyl]-1H-indol-5-yl}propanoic acid], the IC50 was 64 nM. Still for that read-out and setting: in the case of `CSc1ccc(-n2cc(CCc3ccccc3)c3cc(CCC(=O)O)ccc32)cc1` [Example 334, 3-[1-(4-methylthiophenyl)-3-(2-phenylethyl)-1H-indol-5-yl]propanoic acid] it was 11 nM.

With `O=C(O)CCc1ccc2c(c1)c(CCc1ccccc1)cn2-c1ccc(Cl)cc1` [Example 105, 3-[1-(4-chlorophenyl)-3-(2-phenylethyl)-1H-indol-5-yl]propanoic acid 2-amino-2-(hydroxymethyl)propane-1,3-diol salt (1:1)], the IC50 is 36 nM.

With `O=C(O)CCc1ccc2c(c1)c(CC1(c3ccccc3)CC1)cn2-c1ccccc1` [Example 41, 3-{1-phenyl-3-[(1-phenylcyclopropyl)methyl]-1H-indol-5-yl}propanoic acid 2-amino-2-(hydroxymethyl)propane-1,3-diol salt (1:1)], the IC50 is 634 nM. As for `O=C(O)CCc1ccc2c(c1)c(CCc1ccccc1)cn2-c1ccc(CN2CCCC2)cc1` [Example 306, 3-{3-(2-phenylethyl)-1-[4-(pyrrolidin-1-ylmethyl)phenyl]-1H-indol-5-yl}propanoic acid], the IC50 was determined as 871 nM.

Take `O=C(O)CCc1ccc2c(c1)c(CCc1ccc(F)cc1)cn2-c1ccccc1` [Example 62, 3-{3-[2-(4-fluorophenyl)ethyl]-1-phenyl-1H-indol-5-yl}propanoic acid 2-amino-2-(hydroxymethyl)propane-1,3-diol salt (1:1)]: the IC50 turned out to be 565 nM.

`CC(Cc1cn(-c2ccccc2)c2ccc(CCC(=O)O)cc12)c1ccccc1` (stereo not shown) [Example 28, 3-[1-phenyl-3-(2-phenylpropyl)-1H-indol-5-yl]propanoic acid 2-amino-2-(hydroxymethyl)propane-1,3-diol salt (1:1)]: the IC50 amounted to 258 nM. In the case of `Nc1cccc(-n2cc(CCc3ccccc3)c3cc(CCC(=O)O)ccc32)c1` [Example 167, 3-[1-(3-aminophenyl)-3-(2-phenylethyl)-1H-indol-5-yl]propanoic acid], the IC50 amounted to 49 nM. Same read-out and setting: in the case of `O=C(O)CCc1ccc2c(c1)c(CCc1ccccn1)cn2-c1ccc(Oc2ccccc2)cc1` [Example 275, 3-[1-(4-phenoxyphenyl)-3-(2-pyridin-2-ylethyl)-1H-indol-5-yl]propanoic acid hydrochloride] it was 12 nM. For `CC(O)c1ccc(-n2cc(CCc3ccccc3)c3cc(CCC(=O)O)ccc32)cc1` (stereo not shown) [Example 295, 3-{1-[4-(1-hydroxyethyl)phenyl]-3-(2-phenylethyl)-1H-indol-5-yl}propanoic acid 2-amino-2-(hydroxymethyl)propane-1,3-diol salt (1:1)], the IC50 is 755 nM.

On to `O=C(O)CCc1ccc2c(c1)c(CCc1ccccc1)cn2-c1ccc([N+](=O)[O-])cn1` [Example 134, 3-[1-(5-nitro-2-pyridinyl)-3-(2-phenylethyl)-1H-indol-5-yl]propanoic acid hydrochloride], for which the IC50 came to 211 nM. As to `CC(C(=O)c1cn(-c2ccccc2)c2ccc(CCC(=O)O)cc12)c1ccccc1` (stereo not shown) [Example 27, 3-[1-phenyl-3-(2-phenylpropanoyl)-1H-indol-5-yl]propanoic acid 2-amino-2-(hydroxymethyl)propane-1,3-diol salt (1:1)], the IC50 stood at 385 nM. Same read-out and setting: as for `O=C(O)CCc1ccc2c(c1)c(CCCc1ccccc1)cn2-c1ccc(O)cc1` [Example 340, 3-[1-(4-hydroxyphenyl)-3-(3-phenylpropyl)-1H-indol-5-yl]propanoic acid], the figure is 568 nM; as for `CN(C)c1cccc(-n2cc(CCc3ccccc3)c3cc(CCC(=O)O)ccc32)c1` [Example 179, 3-{1-[3-(dimethylamino)phenyl]-3-(2-phenylethyl)-1H-indol-5-yl}propanoic acid], 182 nM.

Regarding `O=C(O)CCc1ccc2c(c1)c(CCc1ccccn1)cn2-c1cccc(O)c1` [Example 282, 3-[1-(3-hydroxyphenyl)-3-(2-pyridin-2-ylethyl)-1H-indol-5-yl]propanoic acid hydrochloride], the IC50 is 582 nM. Still for that read-out and setting: as for `O=C(O)CCc1ccc2c(c1)c(CCc1ccccc1)cn2-c1ccc(OCCc2cccnc2)cc1` [Example 253, 3-{3-(2-phenylethyl)-1-[4-(2-pyridin-3-ylethoxy)phenyl]-1H-indol-5-yl}propanoic acid], the figure is 14 nM; as for `O=C(O)CCc1ccc2c(c1)c(CCc1ccccc1)cn2-c1ccc(COc2ccc(F)cc2)cc1` [Example 291, 3-[1-{4-[(4-fluorophenoxy)methyl]phenyl}-3-(2-phenylethyl)-1H-indol-5-yl]propanoic acid 2-amino-2-(hydroxymethyl)propane-1,3-diol salt (1:1)], 83 nM. Take `O=C(O)CCc1ccc2c(c1)c(CCc1ccccc1)cn2-c1ccc(OCCCO)cc1` [Example 328, 3-{1-[4-(3-hydroxypropoxy)phenyl]-3-(2-phenylethyl)-1H-indol-5-yl}propanoic acid 2-amino-2-(hydroxymethyl)propane-1,3-diol salt (1:1)]: the IC50 came out at 57 nM.

For a further test, the system named is PGE2 production in mouse peritoneal exudate cells. Briefly: LPS-induced PGE2 production system using mouse peritoneal exudate cells. The test is classed as cell-based. The following applies: LPS 10 μg/ml, 6 hours. How it is done: For evaluation of the PGE2 production inhibiting activity, the lipopolysaccharide (LPS)-induced PGE2 production system using mouse peritoneal exudate cells with reference to the method of Kim et al. (see Kim, Y K et al., Biol Pharm Bull 25: 472, 2002) was used. That is, 2 ml of thioglycolate solution (made by Sigma, Brewer's Thioglycorate medium) per mice were intraperitoneally administered to 8-week old female C3H/HeN mice (Charles River Japan). After 4 days, a phosphate buffer saline (PBS) 5 ml was used to wash the abdominal cavity and the infiltrating cells were recovered. The recovered cells were suspended in a predetermined concentration in an RPMI1640 medium (Nacalai Tesque) containing 10% bovine fetal serum (BioWhittaker) and 10 μg/ml gentamycin (Invitrogen).
The infiltrating cell suspension 100 μl containing 2×10^5 cells per well was inoculated in a 96-well culture plate, then the test compound solution or solvent 50 μl was added. Under conditions of 5% CO2 and 37° C., this was precultured for 15 minutes, then LPS (made by Sigma: L-4524) solution 50 μl (final concentration of LPS of 10 μg/ml) was added, and the mixture was cultured for a further 6 hours. After the end of the culture, the culture supernatant was recovered and the PGE2 concentration in the supernatant was measured using an EIA kit (made by Amersham). Based on the measurement value, the test compound concentration suppressing 50% of the PGE2 production at the time of non-addition of a compound (IC50 value) was calculated.
For `O=C(O)CCc1ccc2c(c1)c(CCc1ccccc1)cn2-c1ccccc1O` [Example 147, 3-[1-(2-hydroxyphenyl)-3-(2-phenylethyl)-1H-indol-5-yl]propanoic acid], the IC50 worked out at 1240 nM.

Regarding `Cc1c(CCc2ccccc2)c2cc(CCC(=O)O)ccc2n1-c1ccccc1` [Example 48, 3-[2-methyl-1-phenyl-3-(2-phenylethyl)-1H-indol-5-yl]propanoic acid], the IC50 worked out at 2490 nM. Compound `O=C(O)CCc1ccc2c(c1)c(CCc1ccccc1)cn2-c1ccccc1` [Example 17, 3-[1-phenyl-3-(2-phenylethyl)-1H-indol-5-yl]propanoic acid 2-amino-2-(hydroxymethyl)propane-1,3-diol salt (1:1)] had an IC50 of 1320 nM. Turning to `O=C(O)CCc1ccc2c(c1)c(CCc1ccccc1)cn2-c1cccnc1` [Example 128, 3-[3-(2-phenylethyl)-1-(3-pyridinyl)-1H-indol-5-yl]propanoic acid hydrochloride], the IC50 came out at 6430 nM.

Regarding `O=C(O)CCc1ccc2c(c1)c(CCc1ccccc1)cn2-c1cccc(O)c1` [Example 157, 3-[1-(3-hydroxyphenyl)-3-(2-phenylethyl)-1H-indol-5-yl]propanoic acid], the IC50 was 2250 nM.

The record behind these values is patent US8293781B2, “Indole derivatives having cPLA2 inhibiting activity and applications and production methods of the same” (Daiichi Sankyo Company, Limited, priority 2007, dated 2012).
